The target of one data set is T1, β-galactosidase (Escherichia coli, UniProt P00722).
T1 construct: purchased Sigma Chemical Co., St. Louis, Mo
In words: In vitro kinetic assay of galactosidase substrates (absorbance increase at 490 nm). Type of data set: biochemical. Particulars: in buffer, pH 7.0, room temperature; for Km: read-out: KM (Michaelis constant). The text has this: There are two parameters to describe the catalytic reaction of an enzyme on its substrate. The turnover rate k2, i.e. the substrate conversion rate by one unit of enzyme, can be expressed as μmol/(minute·mg). The Michaelis constant KM which gives the substrate binding ability to an enzyme (the smaller is KM, the higher is binding ability), can be expressed as μM. The relevant data for turnover of five lipophilic FDG substrates by β-galactosidase is detailed in Table 2.
The substrates have essentially no absorbance at 490 nm while their hydrolysis products from reaction with β-galactosidase have a strong absorbance at this wavelength. Using the extinction coefficients of the products, the substrate hydrolysis rate can be determined by the absorbance increase at 490 nm (Table 2).
13.8 g NaH2 PO4.H2 O, 0.2 g MgCl2.6H2 O and 7 mL liquid 2-mercaptoethanol are dissolved in 1 liter distilled water and adjusted to pH 7.0 using NaOH.
The glycosidase substrates are dissolved at 5 mg/mL in anhydrous DMSO.
β-Galactosidase (Sigma Chemical Co., St. Louis, Mo.) is dissolved at 1 mg/mL in water. This solution is stable for 24 hours at room temperature.
A series of substrate concentrations between 1 μM and 1 mM in 2.8 mL of the assay buffer is prepared and pipetted into a cuvette. 0.2 mL of a 1 mg/mL solution of β-galactosidase in water is added in the cuvette at room temperature to initiate the enzymatic reaction and the absorbance increase at 490 nm is immediately recorded in the spectrophotometer equipped with a chart recorder set at a speed of 10 mm/min. The enzyme reaction rate is calculated using an appropriate product extinction coefficient. Double reciprocal plotting of reaction rate and substrate concentration will yield the turnover rate and Michaelis constant (Stryer, BIOCHEMISTRY p. 189 (W. H. Freeman & Co., N.Y. 1988)).

Another data set concerns CRE BAG 2 (lacZ+) cells. In words: Labeling of lacZ+ cells with fluorogenic substrate, fluorescence microscopy. In kind it is cell-based, mouse. As to conditions: 60 μM. The source says:
The photographs were taken under a Zeiss Axioplan Microscope equipped with FITC filter set using Fujichrome p1600 color reversal (slide) film. This film was then commercially developed. The black and white photographs were printed from color slides under the following conditions: 1)Internegative using Ilford Panf film, exposed for 1/60 sec. at f11;2) black and white prints on Kodak polycontrast III paper.
(§1) CRE BAG 2 (lacZ+) cells were used to test the effectiveness of the substrate in labeling lacZ+ cells. NIH3T3 (lacZ-) cells were used as a control. Both cell lines were obtained from American Type Culture Collection Co., Rockville, Md. The cells were grown in a humidified atmosphere of 5% CO2 in Dulbecco's modified Eagle's medium (DMEM) supplemented with 10% calf serum, 50 μg/ml gentamycin, 300 μg/ml L-glutamine and 10 mM HEPES pH 7.4 (culture medium).
(§2) to 1.0 mg of 5-fattyacylaminofluorescein di-β-galactopyranoside substrate (C12 FDG) was added 0.1193 ml of 20% DMSO to get 10 mM stock solution. Stock solutions were kept sealed in the brown bottle and stored at 4° C.
(§3) […] Labeling culture medium was filter-sterilized by passing through an ACRODISC™ filter (0.20 μm pore size).
Cells were washed with fresh (non-labeling) culture medium before examination. […] After 6 hrs., the fluorescence intensity in CRE BAG 2 cells reached its highest level.

For another data set, the system named is NIH3T3 (lacZ-) cells. In words: Labeling of lacZ- control cells with fluorogenic substrate, fluorescence microscopy. Type of data set: cell-based, mouse. Particulars: 60 μM, after 1 hr. incubation. As for the experimental part: as §1, §2, §3
Cells were washed with fresh (non-labeling) culture medium before examination. Cells were observed using a microscope equipped with a fluorescein filter. […] After 6 hrs., the fluorescence intensity in CRE BAG 2 cells reached its highest level.

In a further data set the test system is cells. In words: Cytotoxicity of the labeling reagent for cultured cells. Type of data set: cell-based. As to conditions: for toxicity effects on labelled cells: concentration up to 100 mM.
The next data set relates to plant cell populations. Particulars: cited from earlier work.
Data set [1] concerns GUS gene positive tobacco plant cells. Briefly: Detection of GUS gene expression in transformed plant cells. Type of data set: cell-based. Particulars: 100 μM, 4 h incubation, GUS+ versus control cells. As for the experimental part:
In our cellular assay, the tobacco plant with and without the GUS gene (CaMV35S-GUS, cauliflower mosaic virus 35S promoter with the coding region of GUS) were used. (Ref: Jefferson, R.A., EMBO J., 1987, 6, 3901-3907).
Sections of the stem of both plants were cultured on Murashige and Skoog basal medium with sucrose and agar inside of plant culture dish at 2000 lux, 18 h day, 26° C. The calli were collected from the dishes, cut to small pieces and transferred to liquid medium (in screw cap 50 ml Erlenmeyer flasks) to get cell suspension with shaking (120 rpm) at the culture room. Sterilized 1 mM FA910 solution (in water) was added to the cell suspension to final concentration of 100μM. After incubating cells in normal condition for 4 h, take 1 ml of suspension, spin down the cells. The cells were resuspended in 100 μl of fresh culture medium, placed onto glass slide, covered with a cover glass and sealed with wax.
Both the GUS+ and control tobacco cells were examined under a Zeiss microscope equipped with FITC filter set. Photographs were taken of both fluorescent and Nomaski images (Fujichrome P1600D, color reversal film, daylight).

The next data set deals with lacZ+ cell. In words: Examination of galactosidase activity of sorted cells with resorufin galactoside. Type of data set: cell-based. As to conditions: 0.5 mM, 0.1 M phosphate buffer, 0.1% Triton X-100. As for the experimental part:
The sorted cell is collected in a 96 well microtiter plate (Corning, N.Y.). The cell galactosidase activity is examined by means of the permeant fluorogenic substrate resorufin galactoside (Molecular Probes, Inc., Eugene, OR). To 20 μl cell sample in a microtiter well, is added 200 μl of a 0.5 mM resorufin galactoside solution in 0.1 M phosphate buffer containing 1 mM MgCl2 and 0.1% Triton X-100. After 1 hour incubation, the plate is read in a CYTOFLUOR™ fluorescence plate reader (Millipore, Bedford, Mass.) with excitation at 560 nm, emission at 645 nm, sensitivity=1. A fluorescence reading below 20 can be scored lacZ- cell and a reading higher than 60 can be scored lacZ+. The resorufin galactoside can detect the enzyme activity in a single lacZ^+ cell within 1 hour.

Entries after “also recorded” stand apart in the source; their conditions may differ. Structures can show the parent of a compound that is named as a salt. Where two headings read alike, the source gives them in different places.

T1 sequence (P00722 2-1024): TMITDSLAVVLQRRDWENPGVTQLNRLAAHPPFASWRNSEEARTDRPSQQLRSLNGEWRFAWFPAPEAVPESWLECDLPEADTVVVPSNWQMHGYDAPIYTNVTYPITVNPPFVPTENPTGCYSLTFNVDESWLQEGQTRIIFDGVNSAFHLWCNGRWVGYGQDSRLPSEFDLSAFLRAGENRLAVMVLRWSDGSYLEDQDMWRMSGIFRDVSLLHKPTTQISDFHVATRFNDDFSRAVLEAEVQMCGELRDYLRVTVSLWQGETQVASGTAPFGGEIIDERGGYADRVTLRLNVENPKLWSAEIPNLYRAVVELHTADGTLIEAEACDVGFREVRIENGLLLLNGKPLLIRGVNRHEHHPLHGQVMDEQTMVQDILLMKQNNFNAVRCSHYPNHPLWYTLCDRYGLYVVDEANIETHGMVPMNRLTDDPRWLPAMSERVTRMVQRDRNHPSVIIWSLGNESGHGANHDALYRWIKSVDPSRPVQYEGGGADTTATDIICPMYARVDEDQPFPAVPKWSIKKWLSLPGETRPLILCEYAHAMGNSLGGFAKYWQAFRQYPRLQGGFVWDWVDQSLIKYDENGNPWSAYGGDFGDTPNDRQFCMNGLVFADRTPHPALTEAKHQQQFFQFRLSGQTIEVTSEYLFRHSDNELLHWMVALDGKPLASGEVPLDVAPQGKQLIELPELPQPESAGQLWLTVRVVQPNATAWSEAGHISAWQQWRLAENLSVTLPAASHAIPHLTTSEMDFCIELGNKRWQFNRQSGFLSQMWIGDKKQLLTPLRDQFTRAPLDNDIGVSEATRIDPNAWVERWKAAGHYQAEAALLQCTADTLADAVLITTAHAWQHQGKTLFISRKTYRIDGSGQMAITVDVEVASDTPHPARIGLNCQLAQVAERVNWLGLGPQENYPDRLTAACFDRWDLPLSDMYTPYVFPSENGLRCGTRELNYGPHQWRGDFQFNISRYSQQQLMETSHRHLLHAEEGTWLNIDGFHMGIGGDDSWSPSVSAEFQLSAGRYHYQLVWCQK

The term Km denotes the concentration of substrate that gives half-maximal velocity. Take `O=C1OC2(c3ccc(O[C@@H]4O[C@H](CO)[C@H](O)[C@H](O)[C@H]4O)cc3Oc3cc(O[C@@H]4O[C@H](CO)[C@H](O)[C@H](O)[C@H]4O)ccc32)c2ccccc21` [C0 FDG, fluorescein di-62-galactopyranoside, reference compound]: at β-galactosidase, the “k2 (turnover rate)” value was determined as 1.90 µmol/min/mg and the Km stood at 18 µM.
`CCCCCCCCCCCC(=O)Nc1ccc2c(c1)C(=O)OC21c2ccc(O[C@@H]3O[C@H](CO)[C@H](O)[C@H](O)[C@H]3O)cc2Oc2cc(O[C@@H]3O[C@H](CO)[C@H](O)[C@H](O)[C@H]3O)ccc21` [C12 FDG, 5-DODECANOYLAMINOFLUORESCEIN DI-β-D-GALACTOPYRANOSIDE]: on β-galactosidase, the “k2 (turnover rate)” value came out at 0.0537 µmol/min/mg. Also, the Km on β-galactosidase was 0.316 µM. Besides, the “time at which fluorescence intensity in CRE BAG 2 cells reached its highest level” value in the data set with CRE BAG 2 (lacZ+) cells worked out at 6 h. In addition, in the data set on CRE BAG 2 (lacZ+) cells (after 1 hr. incubation), the “fluorescence inside CRE BAG 2 cells” value is given as “fluorescence was observed inside CRE BAG 2 cells”. In addition, the “fluorescence in 3T3 cells” value in the data set with NIH3T3 (lacZ-) cells is listed as “not in 3T3 cells”. Also, the “population doubling time compared with control” value in the data set with cells (60 μM labeling medium) and in the data set on cells (0.2 mM in the culture medium) was “same population doubling time as the control” throughout. In addition, in the data set with cells, the “toxicity effects on labelled cells” value is “no detectible toxicity effects”. In addition, the “morphology and viability of cells” value with cells (grown in 0.2 mM for 10 days) was “normal morphology and remained viable; also recorded: normal in morphology and appearance”. Further, the entries for the “second generation of subcultured cells” value in the data set with cells (preincubated in 60 μM for 24 hrs.) and in the data set with cells (preincubated in the labeled culture medium for 24 hrs.) were “cells of second generation were normal” and “cells of the second generation were normal”, respectively.
`CCCCCCCCCCCCCCCC(=O)Nc1ccc2c(c1)C(=O)OC21c2ccc(O[C@@H]3O[C@H](CO)[C@H](O)[C@H](O)[C@H]3O)cc2Oc2cc(O[C@@H]3O[C@H](CO)[C@H](O)[C@H](O)[C@H]3O)ccc21` [C16 FDG]: on β-galactosidase, the “k2 (turnover rate)” value came out at 0.273 µmol/min/mg and the Km came out at 1.06 µM. Further, the “toxicity effects on labelled cells” value in the data set with cells is “no detectible toxicity effects”.
Consider `CCCCCCCCCCCCCCCCCC(=O)Nc1ccc2c(c1)C(=O)OC21c2ccc(O[C@@H]3O[C@H](CO)[C@H](O)[C@H](O)[C@H]3O)cc2Oc2cc(O[C@@H]3O[C@H](CO)[C@H](O)[C@H](O)[C@H]3O)ccc21` [C18 FDG], for which, at β-galactosidase, the “k2 (turnover rate)” value came to 8.28 µmol/min/mg and the Km was 20.8 µM. Besides, the “toxicity effects on labelled cells” value with cells was “no detectible toxicity effects”.
For `CCCCCCCCCCCCCCCCCC(=O)Nc1ccc2c(c1)C(=O)OC21c2ccc(O)cc2Oc2cc(O)ccc21` [Example F18, octadecanoyl aminofluorescein], in the data set on plant cell populations, the “toxicity to the cells” value is given as “non-toxic”.
As for `CCCCCCCCCCCCCCCCCCOC(=O)c1ccccc1-c1c2ccc(=[N+](CC)CC)cc-2oc2cc(N(CC)CC)ccc12` [Example R18, octadecyl rhodamine B], in the data set on plant cell populations, the “toxicity to the cells” value is recorded as “non-toxic”.
On to `CCCCCCCCCCCC(=O)Nc1ccc2c(c1)C(=O)OC21c2ccc(O[C@@H]3O[C@H](C(=O)O)[C@@H](O)[C@H](O)[C@H]3O)cc2Oc2cc(O[C@@H]3O[C@H](C(=O)O)[C@@H](O)[C@H](O)[C@H]3O)ccc21` [FA910, 5-DODECANOYLAMINOFLUORESCEIN DI-β-D-GLUCOPYRANOSIDURONIC ACID, DI-LITHIUM SALT], for which the “staining of tobacco cells (yellowish-green fluorescence)” value in data set [1] is “Only the GUS gene positive tobacco plant cells were stained”.
With `O=c1ccc2nc3ccc(O[C@@H]4O[C@H](CO)[C@H](O)[C@H](O)[C@H]4O)cc3oc-2c1` [resorufin galactoside], the “time to detect enzyme activity in a single lacZ+ cell” value in the data set on lacZ+ cell is ≤ 1 h.
In the case of fluorescein isothiocyanate [FITC], in the data set on plant cell populations, the “toxicity to the cells” value was “non-toxic”. The “toxicity to the cells at high levels” value in the data set with plant cell populations (high levels) is “toxic at high levels”.
rhodamine isothiocyanate [RITC]: in the data set with plant cell populations, the “toxicity to the cells” value is “non-toxic” and the “toxicity to the cells at high levels” value was “toxic at high levels”.

The record behind these values is patent US5208148A, “Lipophilic fluorescent glycosidase substrates” (Molecular Probes, Inc., priority 1990, dated 1993).
